Source: patent US10758609B2, “Cross-reactive T-cell epitopes of HIV, SIV, and FIV for vaccines in humans and cats” (priority 2015, dated 2020)
Entries after “also recorded” stand apart in the source; their conditions may differ.

Experiments:
[1] = tested on: feline CD3^+CD8^+ T cells; experiment: CFSE-based feline CD3+CD8+ T-cell proliferation; design: species or system cat; conditions: FIV-vaccinated cats; for CD8, frequency of responders: FIV epitope peptide; for CD8^+ T (T-cell proliferation), frequency of responders: FIV peptides
Method: Carboxyfluorescein diacetate succinimide ester (CFSE)-proliferation was performed according to the manufacturer's protocol (Invitrogen, Grand Island, N.Y.) and processed using a previously described modification. The modification consisted of 2.5×10^5 CFSE-labeled feline PBMC stimulated for 5 days (37° C., 5% CO2) with 4 μg/mL peptide in culture media (RPMI medium 25 µg/mL gentamycin, and 10% heat-inactivated fetal bovine serum (FBS)). Peptide pools consisted of 3-5 overlapping peptides of 4 μg/mL each. The antibodies used for flow cytometry based proliferation analysis consisted of murine anti-feline (Fe) CD3 monoclonal antibody (MAb clone kindly provided by Drs. Yorihiro Nishimura and Takayuki Miyazawa; described in [32]) combined with secondary goat anti-mouse IgG3-APC/CY7 MAb (SouthernBiotech, Birmingham, Ala.; Cat#1100-19); and murine anti-FeCD4-PE MAb (SouthernBiotech, Cat#8130-09); and murine anti-FeCD8 MAb (MAb clone kindly provided by Dr. Nazareth Gengozian, described in [33]) with secondary goat anti-mouse IgG2a-PE/CY7 (Southern Biotech, Cat#1080-17). The murine anti-B220-APC MAb for detecting feline B cells (SouthernBiotech, Cat#1665-11) and previously described MAbs for CFSE were used for FACS phenotyping. Both FACS phenotyping and CFSE-proliferation analyses were performed with BD LSRII and FACSDiva™ Software (BD Biosciences, San Jose, Calif.). The final value for each sample was derived after subtraction of the average value of the media controls using a positive threshold of ≥1 CFSE^low.
Concurrently, the overlapping peptide pools of FIV structural/enzyme proteins were used to stimulate PBMC and T cells from FIV-vaccinated cats. These cats were vaccinated with prototype dual-subtype FIV vaccine which was the prototype to our commercial FIV vaccine (Coleman et al., 2014). The feline assays (Example 1) equivalent to those of human assays (Sanou et al., 2013; Roff et al., 2015) were used except for ICS analysis. In place of ICS for cytolysin/cytotoxins, IL2 ELISpot analysis was performed. […] The results for FIV-vaccinated cats included IFNγ and IL2 productions and CD3^+CD4+ and CD3^+CD8^+ T-cell proliferation (Table 9, the second set of results).
Carboxyfluorescein diacetate succinimide ester (CFSE)-proliferation analysis was according to the manufacturer's protocol (Invitrogen-Fisher, Carlsbad, Calif.) and processed as previously described (Roff et al. (2015)) using the following modifications: anti-feline CD3 antibody ((clone NZM1), a generous gift from T. Miyazawa (Univ. of Tokyo, Japan)) in combination with APC-conjugated anti-mouse IgG3 (Southern Biotech, Birmingham, Ala.), PE-conjugated anti-feline CD4 antibody (Southern Biotech), and anti-feline CD8 antibody (gift from N. Gengozian, University of Tennessee (Gengozian et al. (1997))) in combination with PE/Cy7-conjugated anti-mouse IgG2b (Southern Biotech) to detect the proliferation of feline CD3^+CD4+ T cells and feline […]. All results shown in the figures (FIGS. 7A-1, 7B-1, 7A-2, 7B-2, 7A-3, 7B-3) are after subtracting the average value of each results from all control cats. The threshold of CFSE proliferation is ≥0.5 CFSE^low. […]

[2] = ELISA and FIV immunoblot for antibodies to vaccine peptides/MAPs; format: in vivo, cat; conditions: IWV/MAP-vaccinated cats, throughout the vaccination (pilot study)
Method: To avoid detection of vaccine antibodies to p24 and RT, post-challenge sera were evaluated for infection-induced FIV antibodies by ELISA using 200 ng/well of transmembrane peptide (TM, aa 694-705: […] (SEQ ID NO:68)) as previously described. The positive threshold for anti-TM antibodies was set at 0.2 O.D. The post-vaccination sera immediately before challenge were evaluated for NAb titer to FIVPet and FIVFC1 by NAb assay as previously described. The post-vaccination/pre-challenge sera were tested for antibodies to vaccine peptides by ELISA using each peptide as substrate and by FIV immunoblot with mini-blot modification as previously described. All ELISA thresholds were set at twice the average of the individual serum from 15-20 SPF cats.

[3] = tested on: FIVFC1; experiment: FIV enhancement and suppression (E/S) analysis of in vitro FIV infection of feline PBMC; format: cell-based, feline immunodeficiency virus; conditions: for Direct effect on in vitro FIV infection (enhancement/suppression): 7 μg/mL peptide or MAP, PBMC of uninfected SPF cats, versus virus control; for FIV Test E/S (enhancer/suppressor analysis): FIV peptides, in vitro FIV infection of uninfected cat PBMC
Method: FIV viral enhancement or suppression was determined using a 48-well modification of the method described for detecting FIV enhancing activity of IFNγ and FIV suppressive activity of IFNα [37]. […] MAP1c contained four branched chains of peptide Fp4-3. T-cell mitogen concanavalin A (ConA) at 4 μg/mL was used as an infection enhancing control. Six hours after the culturing with peptide, MAP, or ConA, varying dilutions of FIVFC1 were added to the wells. Seventy-two hours later the cells were re-cultured in fresh culture media with ConA-stimulated autologous PBMC (0.25-0.5×10^6) using the same amount of corresponding peptide, MAP, ConA or media. On Day 7, 10, and 13 of culture, 0.5 mL of culture fluid was collected and 0.5 mL of fresh media added to maintain a consistent volume. The harvested culture samples were analyzed for FIV titer using the previously described RT assay. The results are shown as the end-point dilution titer from two studies using PBMC from different SPF donors.
Statistical analysis. The statistically significant differences between the end-point dilution titers of the peptide or MAP culture samples and either the virus control samples or specific MAP culture samples were calculated using a paired Student t-test with a two-tailed distribution (SigmaPlot version 11.0). Statistical comparisons between pre and post-vaccination(s) were similarly performed. The comparison was considered statistically significant when p<0.05.

[4] = tested on: FIVFC1; experiment: as above; format: cell-based, feline immunodeficiency virus; conditions: FIV-vaccinated cats; for E/S: viral enhancement or suppression: peptide; for E/S pMAP: viral enhancement or suppression: Palmitoyled Pam-MAP (pMAP) of the peptide, ** = MAP(Fp4-3/Fp14-1)

Sequence | CD8, frequency of responders [1] | CD8^+ T (T-cell proliferation), frequency of responders [1] | Peptide-specific serum antibodies (ELISA) [2] | Direct effect on in vitro FIV infection (enhancement/suppression) [3] | FIV Test E/S (enhancer/suppressor analysis) [3] | E/S: viral enhancement or suppression [4] | Direct effect on in vitro FIV infection (enhancement/suppression) ([3]; listed as Fp4-3 real) | E/S pMAP: viral enhancement or suppression [4] | E/S tMAP: viral enhancement or suppression ([4]; Tat-MAP (tMAP) of the peptide)
LLLILCLPTLVDCIRN [FTM8(20)] | ++++ (>54% (++++)) | ++++ (>54% (++++)) |  |  |  |  |  |  | 
KFLYTAFAMQELR [FTM4-3] | ++ (26%-40% (++)) | ++ (25.1%-40% (++)) |  |  |  |  |  |  | 
WRMLIDFRVLNKL [FRT3-4] | +++ (41%-54% (+++)) | +++ (40.1%-54% (+++)) | No specific antibodies | significantly suppressed FIV infection; also recorded: suppress | ↓ | ↓ |  |  | 
PTDMATLIMAAPGCA [Fp4-3] | + (12.5%-25% (+)) | + (12.5%-25% (+)) | No specific antibodies | significantly enhanced FIV infection | ↑ | ↑ | enhancing | ↑** | 
KKKSGKWRMLIDFRV [FRT3-3] | +++ (41%-54% (+++)) | +++ (40.1%-54% (+++)) | No specific antibodies | significant enhancement; also recorded: enhanced in vitro FIV infection; also recorded: enhance/ | ↑ | ↑ |  | ↓X | ↓+
AGLRQSLEQYQVVKQ [FSU4] | +++ (41%-54% (+++)) | +++ (40.1%-54% (+++)) |  |  |  |  |  |  | 
